Source: ChEMBL document CHEMBL1128242, “Polyiodinated triglyceride analogs as potential computed tomography imaging agents for the liver” (J Med Chem, 1995)
“And” between values parts separate entries of the source, which are not always exact repeats. Identical values can stand only once.

How the values were obtained:
[1] = system: Rattus norvegicus; test: Distribution of radioactivity was determined in liver at 24 hr after intravenous administration of 1,3-Disubstituted Triacylglycerols in rats; assay type: ADME, organism-based; conditions: in vivo
[2] = system: Rattus norvegicus; test: Analysis of lipid-soluble radioactivity in liver 0.5 hour after iv administration of [125I]-labeled 2-Oleoyl 1,3-disubstituted Triacylglycerols and represented as % CHCl3/CH3OH from rat; assay type: ADME, organism-based; conditions: in vivo
[3] = system: Rattus norvegicus; test: Polyacrylamide Gel Electrophoresis (PAGE) to determined the concentration of below albumin(BA) in rats after iv administration of [125I]-labeled 2-Oleolyl 1,3-disubstituted triglycerols was reported; assay type: ADME, organism-based; conditions: in vivo
[4] = system: Rattus norvegicus; test: Distribution of radioactivity was determined in spleen at 3h after intravenous administration of [125I]-labeled 2-oleoglycerol 1,3-Bis-[omega-(3-amino-2,4,6-triiodophenyl)alkanoates] in rats; assay type: ADME, organism-based; conditions: in vivo
[5] = system: Rattus norvegicus; test: Distribution of radioactivity was determined in blood at 30 min after intravenous administration of 1,3-Disubstituted Triacylglycerols in rats; assay type: ADME, organism-based; conditions: in vivo, 0.5 h
[6] = system: Rattus norvegicus; test: Analysis of lipid-soluble radioactivity in liver 0.5 hour after iv administration of [125I]-labeled 2-Oleoyl 1,3-disubstituted Triacylglycerols expressed as %parent compound (by TLC with authentic [125I]-labeled standard) from rat; assay type: ADME, organism-based; conditions: in vivo
[7] = system: Rattus norvegicus; test: Distribution of radioactivity was determined in blood at 24 hr after intravenous administration of 1,3-Disubstituted Triacylglycerols in rats; assay type: ADME, organism-based; conditions: in vivo
[8] = system: Rattus norvegicus; test: Polyacrylamide Gel Electrophoresis (PAGE) to determined the concentration of high density lipoprotein (HDL) in rats after iv administration of [125I]-labeled 2-Oleolyl 1,3-disubstituted triglycerols was reported; assay type: ADME, organism-based; conditions: in vivo
[9] = system: Rattus norvegicus; test: Distribution of radioactivity was determined in kidney at 3h after intravenous administration of [125I]-labeled 2-oleoglycerol 1,3-Bis-[omega-(3-amino-2,4,6-triiodophenyl)alkanoates] in rats; assay type: ADME, organism-based; conditions: in vivo
[10] = system: Rattus norvegicus; test: Distribution of radioactivity was determined in lung at 30 min after intravenous administration of [125I]-labeled 2-oleoglycerol 1,3-Bis-[omega-(3-amino-2,4,6-triiodophenyl)alkanoates] in rats; assay type: ADME, organism-based; conditions: in vivo, 0.5 h
[11] = system: Rattus norvegicus; test: Distribution of radioactivity was determined in kidney at 24 hr after intravenous administration of [125I]-labeled 2-oleoglycerol 1,3-Bis-[omega-(3-amino-2,4,6-triiodophenyl)alkanoates] in rats; assay type: ADME, organism-based; conditions: in vivo
[12] = system: Rattus norvegicus; test: Distribution of radioactivity was determined in liver at 24 hr after intravenous administration of [125I]-labeled 2-oleoglycerol 1,3-Bis-[omega-(3-amino-2,4,6-triiodophenyl)alkanoates] in rats; assay type: ADME, organism-based; conditions: in vivo
[13] = system: Rattus norvegicus; test: Distribution of radioactivity was determined in heart at 3h after intravenous administration of [125I]-labeled 2-oleoglycerol 1,3-Bis-[omega-(3-amino-2,4,6-triiodophenyl)alkanoates] in rats; assay type: ADME, organism-based; conditions: in vivo
[14] = system: Rattus norvegicus; test: Analysis of lipid-soluble radioactivity in plasma 0.5 hour after iv administration of [125I]-labeled 2-Oleoyl 1,3-disubstituted Triacylglycerols expressed as %parent compound (by TLC with authentic [125I]-labeled standard) from rat; assay type: ADME, organism-based; conditions: in vivo
[15] = system: Rattus norvegicus; test: Analysis of lipid-soluble radioactivity in liver 24 hour after iv administration of [125I]-labeled 2-Oleoyl 1,3-disubstituted Triacylglycerols and represented as % CHCl3/CH3OH from rat; assay type: ADME, organism-based; conditions: in vivo
[16] = system: Rattus norvegicus; test: Distribution of radioactivity was determined in plasma at 24 hr after intravenous administration of [125I]-labeled 2-oleoglycerol 1,3-Bis-[omega-(3-amino-2,4,6-triiodophenyl)alkanoates] in rats; assay type: ADME, organism-based; set-up: unit not given here; conditions: in vivo
[17] = system: Rattus norvegicus; test: Distribution of radioactivity was determined in thyroid at 3h after intravenous administration of [125I]-labeled 2-oleoglycerol 1,3-Bis-[omega-(3-amino-2,4,6-triiodophenyl)alkanoates] in rats; assay type: ADME, organism-based, Thyroid gland; conditions: in vivo
[18] = system: Rattus norvegicus; test: Analysis of lipid-soluble radioactivity in liver 24 hour after iv administration of [125I]-labeled 2-Oleoyl 1,3-disubstituted Triacylglycerols expressed as %parent compound (by TLC with authentic [125I]-labeled standard) from rat; assay type: ADME, organism-based; conditions: in vivo
[19] = system: Rattus norvegicus; test: Distribution of radioactivity was determined in spleen at 48 hr after intravenous administration of 1,3-Disubstituted Triacylglycerols in rats; assay type: ADME, organism-based; conditions: in vivo
[20] = system: Rattus norvegicus; test: Distribution of radioactivity was determined in thyroid at 24 hr after intravenous administration of [125I]-labeled 2-oleoglycerol 1,3-Bis-[omega-(3-amino-2,4,6-triiodophenyl)alkanoates] in rats; assay type: ADME, organism-based, Thyroid gland; conditions: in vivo
[21] = system: Rattus norvegicus; test: Distribution of radioactivity was determined in blood at 48 hr after intravenous administration of 1,3-Disubstituted Triacylglycerols in rats; assay type: ADME, organism-based; conditions: in vivo
[22] = system: Rattus norvegicus; test: Analysis of lipid-soluble radioactivity in plasma 0.5 hour after iv administration of [125I]-labeled 2-Oleoyl 1,3-disubstituted Triacylglycerols and represented as % CHCl3/CH3OH from rat; assay type: ADME, organism-based; conditions: in vivo
[23] = system: Rattus norvegicus; test: Distribution of radioactivity was determined in thyroid at 30 min after intravenous administration of [125I]-labeled 2-oleoglycerol 1,3-Bis-[omega-(3-amino-2,4,6-triiodophenyl)alkanoates] in rats; assay type: ADME, organism-based, Thyroid gland; conditions: in vivo, 0.5 h
[24] = system: Rattus norvegicus; test: Distribution of radioactivity was determined in blood at 30 min after intravenous administration of [125I]-labeled 2-oleoglycerol 1,3-Bis-[omega-(3-amino-2,4,6-triiodophenyl)alkanoates] in rats; assay type: ADME, organism-based; conditions: in vivo, 0.5 h
[25] = system: Rattus norvegicus; test: Distribution of radioactivity was determined in blood at 3h after intravenous administration of 1,3-Disubstituted Triacylglycerols in rats; assay type: ADME, organism-based; conditions: in vivo
[26] = system: Rattus norvegicus; test: Distribution of radioactivity was determined in heart at 30 min after intravenous administration of [125I]-labeled 2-oleoglycerol 1,3-Bis-[omega-(3-amino-2,4,6-triiodophenyl)alkanoates] in rats; assay type: ADME, organism-based; conditions: in vivo, 0.5 h
[27] = system: Rattus norvegicus; test: Distribution of radioactivity was determined in liver at 48 hr after intravenous administration of 1,3-Disubstituted Triacylglycerols in rats; assay type: ADME, organism-based; conditions: in vivo
[28] = system: Rattus norvegicus; test: Distribution of radioactivity was determined in blood at 3h after intravenous administration of [125I]-labeled 2-oleoglycerol 1,3-Bis-[omega-(3-amino-2,4,6-triiodophenyl)alkanoates] in rats; assay type: ADME, organism-based; conditions: in vivo
[29] = system: Rattus norvegicus; test: Distribution of radioactivity was determined in plasma at 30 min after intravenous administration of [125I]-labeled 2-oleoglycerol 1,3-Bis-[omega-(3-amino-2,4,6-triiodophenyl)alkanoates] in rats; assay type: ADME, organism-based; conditions: in vivo, 0.5 h
[30] = system: Rattus norvegicus; test: Polyacrylamide Gel Electrophoresis (PAGE) to determined the concentration of albumin(ALB) in rats after iv administration of [125I]-labeled 2-Oleolyl 1,3-disubstituted triglycerols was reported; assay type: ADME, organism-based; conditions: in vivo
[31] = system: Rattus norvegicus; test: Distribution of radioactivity was determined in lung at 24 hr after intravenous administration of [125I]-labeled 2-oleoglycerol 1,3-Bis-[omega-(3-amino-2,4,6-triiodophenyl)alkanoates] in rats; assay type: ADME, organism-based; conditions: in vivo
[32] = system: Rattus norvegicus; test: Distribution of radioactivity was determined in spleen at 3h after intravenous administration of 1,3-Disubstituted Triacylglycerols in rats; assay type: ADME, organism-based; conditions: in vivo
[33] = system: Rattus norvegicus; test: Polyacrylamide Gel Electrophoresis (PAGE) to determined the concentration of stacking gel(SG) in rats after iv administration of [125I]-labeled 2-Oleolyl 1,3-disubstituted triglycerols was reported; assay type: ADME, organism-based; conditions: in vivo
[34] = system: Rattus norvegicus; test: Polyacrylamide Gel Electrophoresis (PAGE) to determined the concentration of low density lipoprotein (LDL) in rats after iv administration of [125I]-labeled 2-Oleolyl 1,3-disubstituted triglycerols was reported; assay type: ADME, organism-based; conditions: in vivo

Distribution of radioactivity [1] [% dose/organ]	Lipid-soluble radioactivity [2]	Radioactivity [3] [%]	Distribution of radioactivity [4] [% dose/g]	Distribution of radioactivity [5] [% dose/organ]	Lipid-soluble radioactivity [6]	Distribution of radioactivity [7] [% dose/organ]	Radioactivity [8] [%]	Distribution of radioactivity [9] [% dose/g]	Distribution of radioactivity [10] [% dose/g]	Distribution of radioactivity [11] [% dose/g]	Distribution of radioactivity [12] [% dose/g]	Distribution of radioactivity [13] [% dose/g]	Lipid-soluble radioactivity [15]	Distribution of radioactivity [16]	Distribution of radioactivity [17] [% dose/g]	Lipid-soluble radioactivity [18]	Distribution of radioactivity [19] [% dose per organ]	Distribution of radioactivity [20] [% dose/g]	Distribution of radioactivity [21] [% dose per organ]	further results	SMILES
9.6	56	5.1	15.3	6.6	91.9	2.5	0.3	0.18	0.66	0.22	1.1	0.22	30.2	0.21	1.69	0	0.3	6.53	0.4	Lipid-soluble radioactivity [14]: 0; Lipid-soluble radioactivity [22]: 36.1; Distribution of radioactivity [23]: 0.31 % dose/g; Distribution of radioactivity [24]: 0.59 % dose/g; Distribution of radioactivity [25]: 2.7 % dose/organ; Distribution of radioactivity [26]: 0.55 % dose/g; Distribution of radioactivity [27]: 4.4 % dose/organ; Distribution of radioactivity [28]: 0.28 % dose/g; Distribution of radioactivity [29]: 0.83 % dose/g; Radioactivity [30]: 66.3%; Distribution of radioactivity [31]: 0.29 % dose/g; Distribution of radioactivity [32]: 8.2 % dose/organ; Radioactivity [33]: 28.1%; Radioactivity [34]: 0.2%	CCCCCCCC/C=C/CCCCCCCC(=O)OC(COC(=O)CCCCCCc1c(I)cc(I)c(N)c1I)COC(=O)CCCCCCc1c(I)cc(I)c(N)c1I
72.5	62.6	1.1	23.6	7.6	85.1	0.2	0.7	0.04	0.72	0.07	9.09	0.1	59.5	0.01	0.27	87.5	16.6	2.58	0.1	Lipid-soluble radioactivity [22]: 54.2 and 86.3; Distribution of radioactivity [23]: 0.16 % dose/g; Distribution of radioactivity [24]: 0.69 % dose/g; Distribution of radioactivity [25]: 0.5 % dose/organ; Distribution of radioactivity [26]: 0.36 % dose/g; Distribution of radioactivity [27]: 59.7 % dose/organ; Distribution of radioactivity [28]: 0.04 % dose/g; Distribution of radioactivity [29]: 1.25 % dose/g; Radioactivity [30]: 1.8%; Distribution of radioactivity [31]: 0.52 % dose/g; Distribution of radioactivity [32]: 14.5 % dose/organ; Radioactivity [33]: 95.7%; Radioactivity [34]: 0.6%	CCCCCCCC/C=C/CCCCCCCC(=O)OC(COC(=O)Cc1c(I)cc(I)c(N)c1I)COC(=O)Cc1c(I)cc(I)c(N)c1I
